Experimental data taken from paper PMC11858715 (Molecules, 2025).
No end group written: not given here.

Tests used:
[1] = biological target: S1 (GMMILG), sense peptide surrogate of AtxA neurotoxic site (Vipera ammodytes ammodytes, UniProt P00626); test: biochemical; format: binding; conditions: 100% DMSO; 25 °C; read-out: KD (σ)
[2] = biological target: S2 (YIYRNYPDF), sense peptide surrogate of AtxA neurotoxic site (Vipera ammodytes ammodytes, UniProt P00626); test: biochemical; format: binding; conditions: 100% DMSO; 25 °C; read-out: KD (σ)

Substance | Kd [1] [µM] | Kd [2] [µM]
SHHYEP [S1A1, Ser-His-His-Tyr-Glu-Pro] | 4.9 | –
INISIVGVK [S2A1, Ile-Asn-Ile-Ser-Ile-Val-Gly-Val-Lys] | – | 1.1
VNISVIGIK [S2A2, Val-Asn-Ile-Ser-Val-Ile-Gly-Ile-Lys] | – | 8.9
SHHYSP [S1A2, Ser-His-His-Tyr-Ser-Pro] | 1.4 | –
